Like-named read-outs stand apart in the source and are kept apart here.
Tests used:
T cells (CD4 and CD8) = assay: Cleavage resistant CD40L expression and TMP regulation in T cells; format: cell-based
Description: T cells were transduced with OT-001668 and on day 4, the percentage of CD40L expressing T cells (within the both CD4 and CD8) subpopulations was calculated.
T cells were transduced with ecDHFR regulated construct OT-001671 that include a CD40L protein that was resistant to cleavage. On day 4 cells were treated with 10 μM TMP for 24 hours. […] In an independent experiment, T cells transduced with varying volumes of virus corresponding to OT-001671 were treated with increasing doses of TMP for 24 hours. In Table 41, 0.5 μL, 2 μL, and 10 μL indicate the different volumes of virus that were used.

Jurkat cells [1] = conditions: Jurkat cells expressing OT-001662; for Off kinetics (CD40L surface expression, FACS): induced with TMP 50 μM
Description: Kinetics were tested using stably transduced Jurkat cells expressing OT-001662. To study the kinetics of turning on the expression of CD40L, cells were treated with TMP (5 or 50 μM) and fixed for FACS after: 0, 3, 6, 9, 24, 48 hours. At the end of the experiment all fixed were stained and analyzed via FACS in parallel. To study the kinetics of turning off expression, expression was first induced in Jurkat cells with 50 μM TMP. The cells were then washed to remove TMP and fixed after 0, 3, 6, 9, 24 hours, stained and analyzed via FACS in parallel.

Jurkat cells [2] = assay: Linker length, ER regulated CD40L, % CD40L positive Jurkat cells; format: cell-based
Description: Jurkat cells were lentivirally transduced and 24 hours after transduction were treated with DMSO or 1 μM Bazedoxifene for another 24 hours and analyzed by flow cytometry for surface expression of CD40L. […] In Table 33, SR indicates stabilization ratio.

COc1cc(Cc2cnc(N)nc2N)cc(OC)c1OC [TMP]
TMP dose response (percentage of CD40L positive cells) (T cells (CD4 and CD8); CD4+, 0.5 μL virus OT-001671, TMP 0.001 μM): 17.9% | TMP dose response (percentage of CD40L positive cells) (T cells (CD4 and CD8); CD4+, 0.5 μL virus OT-001671, TMP 0.01 μM): 18.8% | TMP dose response (percentage of CD40L positive cells) (T cells (CD4 and CD8); CD4+, 0.5 μL virus OT-001671, TMP 0.1 μM): 20.4% | TMP dose response (percentage of CD40L positive cells) (T cells (CD4 and CD8); CD4+, 0.5 μL virus OT-001671, TMP 1 μM): 20.3% | TMP dose response (percentage of CD40L positive cells) (T cells (CD4 and CD8); CD4+, 0.5 μL virus OT-001671, TMP 10 μM): 27.5% | TMP dose response (percentage of CD40L positive cells) (T cells (CD4 and CD8); CD4+, 2 μL virus OT-001671, TMP 0.001 μM): 11.8% | TMP dose response (percentage of CD40L positive cells) (T cells (CD4 and CD8); CD4+, 2 μL virus OT-001671, TMP 0.01 μM): 12.2% | TMP dose response (percentage of CD40L positive cells) (T cells (CD4 and CD8); CD4+, 2 μL virus OT-001671, TMP 0.1 μM): 14.9% | TMP dose response (percentage of CD40L positive cells) (T cells (CD4 and CD8); CD4+, 2 μL virus OT-001671, TMP 1 μM): 17.6% | TMP dose response (percentage of CD40L positive cells) (T cells (CD4 and CD8); CD4+, 2 μL virus OT-001671, TMP 10 μM): 30% | TMP dose response (percentage of CD40L positive cells) (T cells (CD4 and CD8); CD4+, 10 μL virus OT-001671, TMP 0.001 μM): 4.74% | TMP dose response (percentage of CD40L positive cells) (T cells (CD4 and CD8); CD4+, 10 μL virus OT-001671, TMP 0.01 μM): 6.79% | TMP dose response (percentage of CD40L positive cells) (T cells (CD4 and CD8); CD4+, 10 μL virus OT-001671, TMP 0.1 μM): 7.65% | TMP dose response (percentage of CD40L positive cells) (T cells (CD4 and CD8); CD4+, 10 μL virus OT-001671, TMP 1 μM): 17.2% | TMP dose response (percentage of CD40L positive cells) (T cells (CD4 and CD8); CD4+, 10 μL virus OT-001671, TMP 10 μM): 43.7% | TMP dose response (percentage of CD40L positive cells) (T cells (CD4 and CD8); CD8+, 0.5 μL virus OT-001671, TMP 0.001 μM): 0.59% | TMP dose response (percentage of CD40L positive cells) (T cells (CD4 and CD8); CD8+, 0.5 μL virus OT-001671, TMP 0.01 μM): 0.56% | TMP dose response (percentage of CD40L positive cells) (T cells (CD4 and CD8); CD8+, 0.5 μL virus OT-001671, TMP 0.1 μM): 0.45% | TMP dose response (percentage of CD40L positive cells) (T cells (CD4 and CD8); CD8+, 0.5 μL virus OT-001671, TMP 1 μM): 0.43% | TMP dose response (percentage of CD40L positive cells) (T cells (CD4 and CD8); CD8+, 0.5 μL virus OT-001671, TMP 10 μM): 2.44% | TMP dose response (percentage of CD40L positive cells) (T cells (CD4 and CD8); CD8+, 2 μL virus OT-001671, TMP 0.001 μM): 0.6% | TMP dose response (percentage of CD40L positive cells) (T cells (CD4 and CD8); CD8+, 2 μL virus OT-001671, TMP 0.01 μM): 0.59% | TMP dose response (percentage of CD40L positive cells) (T cells (CD4 and CD8); CD8+, 2 μL virus OT-001671, TMP 0.1 μM): 0.88% | TMP dose response (percentage of CD40L positive cells) (T cells (CD4 and CD8); CD8+, 2 μL virus OT-001671, TMP 1 μM): 1.29% | TMP dose response (percentage of CD40L positive cells) (T cells (CD4 and CD8); CD8+, 2 μL virus OT-001671, TMP 10 μM): 5.57% | TMP dose response (percentage of CD40L positive cells) (T cells (CD4 and CD8); CD8+, 10 μL virus OT-001671, TMP 0.001 μM): 1.18% | TMP dose response (percentage of CD40L positive cells) (T cells (CD4 and CD8); CD8+, 10 μL virus OT-001671, TMP 0.01 μM): 0.89% | TMP dose response (percentage of CD40L positive cells) (T cells (CD4 and CD8); CD8+, 10 μL virus OT-001671, TMP 0.1 μM): 0.95% | TMP dose response (percentage of CD40L positive cells) (T cells (CD4 and CD8); CD8+, 10 μL virus OT-001671, TMP 1 μM): 2.87% | TMP dose response (percentage of CD40L positive cells) (T cells (CD4 and CD8); CD8+, 10 μL virus OT-001671, TMP 10 μM): 12.4% | On kinetics (CD40L surface expression, FACS) (Jurkat cells [1]; TMP 5 μM, 0 hours): 743 | On kinetics (CD40L surface expression, FACS) (Jurkat cells [1]; TMP 5 μM, 3 hours): 886 | On kinetics (CD40L surface expression, FACS) (Jurkat cells [1]; TMP 5 μM, 6 hours): 1096 | On kinetics (CD40L surface expression, FACS) (Jurkat cells [1]; TMP 5 μM, 9 hours): 1392 | On kinetics (CD40L surface expression, FACS) (Jurkat cells [1]; TMP 5 μM, 24 hours): 2435 | On kinetics (CD40L surface expression, FACS) (Jurkat cells [1]; TMP 50 μM, 0 hours): 743 | On kinetics (CD40L surface expression, FACS) (Jurkat cells [1]; TMP 50 μM, 3 hours): 890 | On kinetics (CD40L surface expression, FACS) (Jurkat cells [1]; TMP 50 μM, 6 hours): 1180 | On kinetics (CD40L surface expression, FACS) (Jurkat cells [1]; TMP 50 μM, 9 hours): 1466 | On kinetics (CD40L surface expression, FACS) (Jurkat cells [1]; TMP 50 μM, 24 hours): 3952 | Off kinetics (CD40L surface expression, FACS) (Jurkat cells [1]; 0 hours after wash): 3952 | Off kinetics (CD40L surface expression, FACS) (Jurkat cells [1]; 3 hours after wash): 1631 | Off kinetics (CD40L surface expression, FACS) (Jurkat cells [1]; 6 hours after wash): 1620 | Off kinetics (CD40L surface expression, FACS) (Jurkat cells [1]; 9 hours after wash): 1037 | Off kinetics (CD40L surface expression, FACS) (Jurkat cells [1]; 24 hours after wash): 1287

B1: OT-001965: ER regulated CD40L construct with varied linker length (protein)
chain: MSLALSLTADQMVSALLDAEPPILYSEYDPTRPFSEASMMGLLTNLADRELVHMINWAKRVPGFVDLTLHDQVHLLECAWMEILMIGLVWRSMEHPGKLLFAPNLLLDRDQGKCVEGGVEIFDMLLATSSRFRMMNLQGEEFVCLKSIILLNSGVYTFLSSTLKSLEEKDHIHRVLDKITDTLIHLMAKAGLTLQQQHQRLAQLLLILSHIRHMSNKRMEHLYSMKCKNVVPLSDLLLEMLDAHRLGSGMIETYNQTSPRSAATGLPISMKIFMYLLTVFLITQMIGSALFAVYLHRRLDKIEDERNLHEDFVFMKTIQRCNTGERSLSLLNCEEIKSQFEGFVKDIMLNKEETKKENSFEMQKGDQNPQIAAHVISEASSKTTSVLQWAEKGYYTMSNNLVTLENGKQLTVKRQGLYYIYAQVTFCSNREASSQAPFIASLCLKSPGRFERILLRAANTHSSAKPCGQQSIHLGGVFELQPGASVFVNVTDPSQVSHGTGFTSFGLLKL
Percent of Jurkat cells expressing CD40L (Jurkat cells [2]; 1 μM Bazedoxifene): 27% | SR (Jurkat cells [2]; 1 μM Bazedoxifene versus DMSO, % CD40L positive Jurkat cells): 9 | Percent of Jurkat cells expressing CD40L (Jurkat cells [2]; DMSO): 3%
